Data set [1] has as its system HeLa 654 cells. Nature of the data set: HeLa-654 eGFP assay (corrective splicing / exon skipping by PMO IVS2-654). In kind it is cell-based, human. On the procedure: With the 36 constructs synthesized, the ability to modulate PMO activity using the modified HeLa cell assay was tested. The HeLa-654 cells were stably transfected to express a nonfluorescent eGFP protein. The eGFP gene is interrupted by a mutant intron from the human β-globin gene (IVS2-654). The insertion alters pre-mRNA splicing to cause retention of a fragment in the mature mRNA that results in a nonfluorescent protein. PMO IVS2-654 base-pairs with the B-globin insertion, modifies mRNA splicing, and thereby leads to expression of fluorescent eGFP.
For treatment, the crude reaction mixture was diluted to 5 μM in media. The concentration of the modular construct was calculated based on the original concentration of the module 1-2 conjugate mixed in the reaction. Using media containing 10% fetal bovine serum (FBS), the cells were treated with each construct for 22 hours, after which the cellular fluorescence was measured by flow cytometry.
From the lists of hundreds of predicted peptide sequences, twenty candidates were selected that varied in length, charge, and predicted activity to synthesize and test. Just as with the PMO-peptide library, the PMO-Mach constructs were first tested for PMO delivery in the HeLa 654 assay at 5 μM in complete media for 22 hours and analyzed by flow cytometry (FIG. 14). Experiments were conducted using three technical triplicates and two or three biological replicates.
HeLa 654 cells were maintained in MEM supplemented with 10% (v/v) fetal bovine serum (FBS) and 1% (v/v) penicillin-streptomycin at 37° C. and 5% CO2. Eighteen hours prior to treatment, the cells were plated at a density of 5,000 cells per well in a 96-well plate in MEM supplemented with 10% FBS and 1% penicillin-streptomycin. The day of the experiment, the 384 well plate containing the crude reaction mixtures in DMSO was diluted to 100 μM by the addition of 16.8 μL of PBS to the 3.2 μL reaction mixture. Then, each construct was diluted to 5 μM in MEM supplemented with 10% FBS and 1% penicillin-streptomycin. Cells were incubated with each conjugate at a concentration of 5 μM for 22 hours at 37° C. and 5% CO2. Next, the treatment media was aspirated the cells were incubated with Trypsin-EDTA 0.25% for 15 min at 37° C. and 5% CO2, washed 1× with PBS, and resuspended in PBS with 2% FBS and 2 μg/mL propidium iodide. Flow cytometry analysis was carried out on a BD LSRII flow cytometer. Gates were applied to the data to ensure that cells that were highly positive for propidium iodide or had forward/side scatter readings that were sufficiently different from the main cell population were excluded. Each sample was capped at 5,000 gated events.
Analysis was conducted using Graphpad Prism 7. For each sample, the mean fluorescence intensity and the number of gated cells was measured (FIGS. 8 and 9) and the intensity multiplied by the cell number was calculated (FIG. 7).

A short description of data set [2]: Chromogenic LAL endotoxin assay. To be noted: lot used for animal studies, acetate salt, 0.5 mg in 1 mL PBS. How it is done: The amount of endotoxin in PMO-P7 was measured. A chromogenic LAL (Limulus Amebocyte Lysate) assay for the detection and quantification of bacterial endotoxins was used. LAL is an extract of blood cells (amoebocytes) from the Atlantic horseshoe crab. This assay is based on the reaction of LAL with bacterial endotoxin lipopolysaccharide (LPS), which is a membrane component of gram-negative bacteria. In this method the LAL reagent is mixed with a chromogenic reagent (a peptide connected to p-nitroaniline, a yellow colorant) to produce a synthetic chromogenic substrate. The sample was added to this chromogenic substrate prior incubation. The presence of endotoxins in the sample produces a series of enzymatic reactions in the LAL reagent resulting in the breaking of the peptide bonds releasing p-nitroaniline molecules and therefore producing a yellow color. The concentration of endotoxin is quantitated by measuring the absorbance at 405-410 nm. Using the lot of PMO-P7 for animal studies, PMO-P7 solution was prepared using 0.5 mg of PMO-P^7 as acetate salt dissolved in 1 mL of PBS (1X). […] The reader mixed the sample with the LAL (Limulus Amebocyte Lysate) reagent. […] After mixing, the optical density of the wells was measured and analyzed against an internal archived standard curve. The reading was 0.0471 EU/mg (EU: endotoxin units). […]

The subject of data set [3] is EGFP-654 mice. Nature of the data set: EGFP protein level in tissues of EGFP-654 mice after single i.v. injection. The data set is classed as in vivo, mouse. Details: unit not given here. To be noted: 7 days. The text has this: The mice used in the study contain a similar transgene as the HeLa654 cells from Example 4. This mouse model ubiquitously expresses EGFP-654 transgene throughout the body under chicken β-actin promoter. A mutated nucleotide 654 at intron 2 of human β-globin gene is contained in the EGFP-654 sequence which interrupts EGFP-654 coding sequence and prevents proper translation of EGFP protein. […] In this study, 6- to 8-week-old male EGFP-654 mice bred at Charles River Laboratory were used. These mice were group housed with ad libitum access to food and water.
[…] Seven days after the injection, the mice were euthanized for serum and tissue sample collection. Quadriceps, diaphragm, heart were rapidly dissected, snap-frozen in liquid nitrogen and stored at −80° C. until analysis.
20-25 mg of mouse tissue was homogenized in RIPA buffer (Thermo Fisher, Cat #89900) with protease inhibitor cocktail (Roche, 04693124001) using a Fast Prep 24-5G instrument (MP Biomedical). Homogenates were centrifuged at 12,000 g for 10 min at 4° C. The resultant supernatant lysates were quantified by Pierce BCA Protein Assay Kit (Thermo Fisher, Cat #23225) and saved for EGFP expression measurement. Specifically, 80 μg of lysates were aliquoted in each well in a black-wall clear-bottom 96-well microplate (Corning). EGFP fluorescent intensity of each sample was measured in duplicates using a SpectraMAx i3x microplate reader (Molecular devices) by default setting. The average EGFP fluorescent intensity of each sample was then plotted against a standard curve constructed by recombinant EGFP protein (Origen, Cat #TP790050) to quantify EGFP protein level per μg protein lysate (See FIGS. 24D-F).

Data set [4] in a line: Serum kidney injury markers in EGFP-654 mice. The data set is classed as in vivo, mouse. The note with it: after seven days. How it is done: After 3-days of acclimation, mice were randomized into groups to receive a single i.v. tail vein injection of either saline or PMO-P7 at the indicated doses; 5, 10 and 30 mg/kg. Seven days after the injection, the mice were euthanized for serum and tissue sample collection. Quadriceps, diaphragm, heart were rapidly dissected, snap-frozen in liquid nitrogen and stored at −80° C. until analysis.
Serum from all groups were collected 7-days post-injection and tested for kidney injury markers using a Vet Axcel Clinical Chemistry System (Alfa Wassermann Diagnostic Technologies, LLC). Specifically, serum BUN, creatinine, and cystatin C levels were measured using ACE® Creatinine Reagent (Alfa Wassermann, Cat #SA1012), ACER Blood Urea Nitrogen Reagent (Alfa Wassermann, Cat #SA2024) and Diazyme Cystatin C immunoassay (Diazyme Laboratories, Cat #DX133C—K), […], per manufacturer's recommendation (See, FIGS. 24A-C).

The record followed here is patent US20250228954A1, “Designing Antisense Oligonucleotide Delivery Peptides by Interpretable Machine Learning” (Sarepta Therapeutics, Inc., priority 2020, published 2025).

For `Cc1cn([C@H]2CN(P(=O)(OC[C@@H]3CN(P(=O)(OC[C@@H]4CN(P(=O)(OC[C@@H]5CN(P(=O)(OC[C@@H]6CN(P(=O)(OC[C@@H]7CN(P(=O)(OC[C@@H]8CN(P(=O)(OC[C@@H]9CN(P(=O)(OC[C@@H]%10CN(C(=O)CCCCC(=O)N%11Cc%12ccccc%12-c%12nnn(CCCCC(=O)N[C@@H](CCCCN)C(=O)N[C@@H](CCCCN)C(=O)N[C@@H](CCCCN)C(=O)N[C@@H](CCCCN)C(=O)N[C@@H](CCCCN)C(=O)N[C@@H](CCC(N)=O)C(=O)NCCC(=O)N[C@@H](CCCCN)C(=O)N[C@@H](CCCCN)C(=O)N[C@@H](CCCCN)C(=O)N[C@@H](Cc%13c[nH]cn%13)C(=O)N[C@@H](CCCNC(=N)N)C(=O)N[C@@H](Cc%13c[nH]c%14ccccc%13%14)C(=O)N%13CCC[C@H]%13C(=O)N[C@@H](CCCCN)C(=O)NCCCCCC(=O)NCCCCCC(=O)N[C@@H](CS)C(N)=O)c%12-c%12ccccc%12%11)C[C@H](n%11cnc%12c(=O)[nH]c(N)nc%12%11)O%10)N(C)C)C[C@H](n%10cnc%11c(N)ncnc%11%10)O9)N(C)C)C[C@H](n9ccc(N)nc9=O)O8)N(C)C)C[C@H](n8ccc(N)nc8=O)O7)N(C)C)C[C@H](n7ccc(N)nc7=O)O6)N(C)C)C[C@H](n6cnc7c(N)ncnc76)O5)N(C)C)C[C@H](n5cnc6c(N)ncnc65)O4)N(C)C)C[C@H](n4cc(C)c(=O)[nH]c4=O)O3)N(C)C)C[C@@H](COP(=O)(N(C)C)N3C[C@@H](COP(=O)(N(C)C)N4C[C@@H](COP(=O)(N(C)C)N5C[C@@H](COP(=O)(N(C)C)N6C[C@@H](COP(=O)(N(C)C)N7C[C@@H](COP(=O)(N(C)C)N8C[C@@H](COP(=O)(N(C)C)N9C[C@@H](COP(=O)(N(C)C)N%10C[C@@H](COP(=O)(N(C)C)N%11C[C@@H](COP(=O)(N(C)C)N%12CCN(C(=O)OCCOCCOCCO)CC%12)O[C@@H](n%12cnc%13c(=O)[nH]c(N)nc%13%12)C%11)O[C@@H](n%11ccc(N)nc%11=O)C%10)O[C@@H](n%10cc(C)c(=O)[nH]c%10=O)C9)O[C@@H](n9cnc%10c(N)ncnc%109)C8)O[C@@H](n8cc(C)c(=O)[nH]c8=O)C7)O[C@@H](n7cc(C)c(=O)[nH]c7=O)C6)O[C@@H](n6cnc7c(N)ncnc76)C5)O[C@@H](n5ccc(N)nc5=O)C4)O[C@@H](n4ccc(N)nc4=O)C3)O2)c(=O)[nH]c1=O` (some centres unmarked) [P7], in data set [1] (5 μM), the “fold increase in activity with respect to unconjugated PMO (eGFP assay)” value was determined as 14 fold. The “PMO delivery / activity, result in words” value in data set [1] (5 μM, 22 h) is reported as “superior activity”. For the same compound, in data set [1] (dose-response between 0.1 and 100 μM), the “fold increase at maximal effective concentration with respect to unconjugated PMO” value amounted to 45 fold. For the same compound, the “FOLD OVER PMO” value in data set [1] (eGFP fluorescence of PMO-peptide conjugate relative to unconjugated PMO, 5 μM, 22 h) was 17.7. Moreover, in data set [2], the endotoxin was 0.0471 EU/mg. Further, in data set [3] (30 mg/kg), the “GFP protein in the Diaphragm” value is given as 1100, the “GFP protein in the Heart” value was 2000 and the “GFP protein in the Quadriceps” value is 1300. For the same compound, in data set [3] (60 mg/kg), the “GFP protein in the Diaphragm” value was 2500, the “GFP protein in the Heart” value was 2200 and the “GFP protein in the Quadriceps” value came out at 4000. In addition, in data set [4], the “BUN (blood urea nitrogen) levels” value is “no significant changes”, the creatinine levels result is “no significant changes” and the “cystatin C levels” value is given as “no significant changes”.
